The source of these data is ChEMBL document CHEMBL5291721, “A preclinical secondary pharmacology resource illuminates target-adverse drug reaction associations of marketed drugs” (Nat Commun, 2023).

Each structure is given as a SMILES string.

For assay [1], the target named is Gamma-aminobutyric acid receptor subunit alpha-1/alpha-2/beta-2/gamma-2 (Homo sapiens, UniProt P14867+P18507+P47869+P47870). The assay is classed as functional, cell-based.
Assay [2] concerns the target Histamine H1 receptor (Homo sapiens, UniProt P35367). The assay is classed as functional, cell-based.
Assay [3] has as its target T1, Corticotropin-releasing factor receptor 1 (Homo sapiens, UniProt P34998).
T1 sequence (P34998 whole entry): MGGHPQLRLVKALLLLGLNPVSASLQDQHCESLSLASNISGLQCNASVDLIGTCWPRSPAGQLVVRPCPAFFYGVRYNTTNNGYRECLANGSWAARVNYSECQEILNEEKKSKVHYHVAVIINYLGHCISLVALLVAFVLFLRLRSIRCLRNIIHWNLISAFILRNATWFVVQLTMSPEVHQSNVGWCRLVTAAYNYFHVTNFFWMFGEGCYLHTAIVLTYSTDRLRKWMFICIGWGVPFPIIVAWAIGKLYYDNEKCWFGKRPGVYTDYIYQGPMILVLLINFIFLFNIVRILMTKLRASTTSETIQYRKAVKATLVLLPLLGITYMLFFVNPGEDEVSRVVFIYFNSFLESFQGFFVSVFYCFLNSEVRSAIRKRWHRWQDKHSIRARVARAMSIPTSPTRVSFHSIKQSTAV

In assay [4] the target is T2, Corticotropin-releasing factor receptor 2 (Homo sapiens, UniProt Q13324).
T2 sequence (Q13324 whole entry): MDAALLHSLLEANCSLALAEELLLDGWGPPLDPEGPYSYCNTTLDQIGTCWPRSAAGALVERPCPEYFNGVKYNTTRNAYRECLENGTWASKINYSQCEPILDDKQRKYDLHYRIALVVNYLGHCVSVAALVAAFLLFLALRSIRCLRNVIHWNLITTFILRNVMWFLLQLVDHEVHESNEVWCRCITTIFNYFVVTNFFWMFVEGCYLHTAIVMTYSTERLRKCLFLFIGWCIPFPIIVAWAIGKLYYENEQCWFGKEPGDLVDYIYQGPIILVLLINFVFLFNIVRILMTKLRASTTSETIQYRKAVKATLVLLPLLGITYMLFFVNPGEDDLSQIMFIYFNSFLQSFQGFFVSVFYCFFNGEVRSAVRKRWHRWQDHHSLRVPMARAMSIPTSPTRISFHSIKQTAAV

Assay [5] has as its target Histamine H2 receptor (Homo sapiens, UniProt P25021).
Assay [6] deals with Neurotensin receptor type 1 (Homo sapiens, UniProt P30989).
For assay [7], the target named is T3, Alpha-2A adrenergic receptor (Homo sapiens, UniProt P08913).
T3 sequence (P08913 whole entry): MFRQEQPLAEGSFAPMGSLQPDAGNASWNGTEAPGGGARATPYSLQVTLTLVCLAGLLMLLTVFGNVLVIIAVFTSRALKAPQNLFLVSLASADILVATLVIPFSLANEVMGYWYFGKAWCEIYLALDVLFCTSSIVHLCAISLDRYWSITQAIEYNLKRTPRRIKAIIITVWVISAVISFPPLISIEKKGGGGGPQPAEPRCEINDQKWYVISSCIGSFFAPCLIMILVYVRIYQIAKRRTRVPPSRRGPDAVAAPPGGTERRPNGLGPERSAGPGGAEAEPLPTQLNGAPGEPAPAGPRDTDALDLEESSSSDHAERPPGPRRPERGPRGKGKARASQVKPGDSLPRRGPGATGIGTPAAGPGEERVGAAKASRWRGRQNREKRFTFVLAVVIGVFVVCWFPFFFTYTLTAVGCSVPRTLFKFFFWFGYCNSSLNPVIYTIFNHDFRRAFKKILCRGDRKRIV

In assay [8] the target is Beta-1 adrenergic receptor (Homo sapiens, UniProt P08588). Format: functional, cell-based.
For assay [9], the target named is T4, Peroxisome proliferator-activated receptor gamma (Homo sapiens, UniProt P37231).
T4 sequence (P37231 whole entry): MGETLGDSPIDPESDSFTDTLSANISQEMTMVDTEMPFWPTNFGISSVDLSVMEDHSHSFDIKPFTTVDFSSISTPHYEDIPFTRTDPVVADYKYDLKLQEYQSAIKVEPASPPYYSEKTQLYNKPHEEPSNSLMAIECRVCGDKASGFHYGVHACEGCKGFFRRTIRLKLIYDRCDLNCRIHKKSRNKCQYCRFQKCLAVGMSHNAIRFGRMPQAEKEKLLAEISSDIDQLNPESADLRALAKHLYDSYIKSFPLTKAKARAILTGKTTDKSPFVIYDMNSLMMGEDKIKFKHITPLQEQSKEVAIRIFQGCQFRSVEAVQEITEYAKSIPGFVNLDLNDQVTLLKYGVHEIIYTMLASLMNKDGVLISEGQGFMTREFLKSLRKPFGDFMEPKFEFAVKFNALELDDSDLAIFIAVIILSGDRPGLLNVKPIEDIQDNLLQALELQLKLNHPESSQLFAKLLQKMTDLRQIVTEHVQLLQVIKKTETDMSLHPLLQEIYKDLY
The assay is classed as functional.

Assay [10] has as its target T5, D(4) dopamine receptor (Homo sapiens, UniProt P21917).
T5 sequence (P21917 whole entry): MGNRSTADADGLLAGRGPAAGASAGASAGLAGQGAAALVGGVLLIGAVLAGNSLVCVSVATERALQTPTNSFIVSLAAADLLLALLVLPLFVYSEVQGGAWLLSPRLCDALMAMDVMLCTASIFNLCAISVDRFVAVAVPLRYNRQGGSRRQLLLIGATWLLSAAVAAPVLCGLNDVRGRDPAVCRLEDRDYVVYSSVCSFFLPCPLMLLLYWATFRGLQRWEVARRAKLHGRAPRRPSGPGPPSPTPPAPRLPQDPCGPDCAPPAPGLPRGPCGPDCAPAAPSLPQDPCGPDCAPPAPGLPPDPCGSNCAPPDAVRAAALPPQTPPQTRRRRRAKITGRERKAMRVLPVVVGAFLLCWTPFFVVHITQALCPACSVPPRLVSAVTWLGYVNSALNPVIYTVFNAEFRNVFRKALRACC

For assay [11], the target named is Gamma-aminobutyric acid type B receptor subunit 1 (Homo sapiens, UniProt Q9UBS5).
The target of assay [12] is 5-hydroxytryptamine receptor 6 (Homo sapiens, UniProt P50406).
Assay [13] addresses 5-hydroxytryptamine receptor 7 (Homo sapiens, UniProt P34969).
Further: assay procedure not described here.

Sequence of Gamma-aminobutyric acid receptor subunit alpha-1/alpha-2/beta-2/gamma-2 (P14867 whole entry): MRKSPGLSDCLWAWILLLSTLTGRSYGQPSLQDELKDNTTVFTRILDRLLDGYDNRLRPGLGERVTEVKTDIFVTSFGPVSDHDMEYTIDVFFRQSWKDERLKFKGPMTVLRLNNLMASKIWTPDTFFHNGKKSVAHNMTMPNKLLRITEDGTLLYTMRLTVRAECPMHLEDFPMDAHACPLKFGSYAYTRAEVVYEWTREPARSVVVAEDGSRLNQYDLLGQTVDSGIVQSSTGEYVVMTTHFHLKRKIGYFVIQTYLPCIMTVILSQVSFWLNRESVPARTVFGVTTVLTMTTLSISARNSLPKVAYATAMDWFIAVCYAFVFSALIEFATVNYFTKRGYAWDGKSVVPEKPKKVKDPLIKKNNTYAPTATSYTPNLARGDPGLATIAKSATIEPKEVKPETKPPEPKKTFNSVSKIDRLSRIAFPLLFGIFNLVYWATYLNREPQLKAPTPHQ
Sequence of Gamma-aminobutyric acid receptor subunit alpha-1/alpha-2/beta-2/gamma-2 (P47870 whole entry): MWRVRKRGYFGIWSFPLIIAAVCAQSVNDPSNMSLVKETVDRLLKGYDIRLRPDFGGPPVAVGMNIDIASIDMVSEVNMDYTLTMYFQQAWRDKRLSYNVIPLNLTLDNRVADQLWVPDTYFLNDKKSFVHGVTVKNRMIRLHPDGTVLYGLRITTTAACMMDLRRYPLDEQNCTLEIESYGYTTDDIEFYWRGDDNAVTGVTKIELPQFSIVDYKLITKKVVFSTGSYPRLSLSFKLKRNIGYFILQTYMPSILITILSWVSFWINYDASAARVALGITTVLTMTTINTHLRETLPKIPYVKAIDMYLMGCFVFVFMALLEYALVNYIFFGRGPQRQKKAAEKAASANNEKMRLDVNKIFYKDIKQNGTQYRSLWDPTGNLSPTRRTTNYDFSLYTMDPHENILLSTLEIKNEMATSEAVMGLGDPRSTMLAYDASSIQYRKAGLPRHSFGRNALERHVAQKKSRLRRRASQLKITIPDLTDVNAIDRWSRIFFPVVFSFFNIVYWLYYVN
Sequence of Gamma-aminobutyric acid receptor subunit alpha-1/alpha-2/beta-2/gamma-2 (P18507 whole entry): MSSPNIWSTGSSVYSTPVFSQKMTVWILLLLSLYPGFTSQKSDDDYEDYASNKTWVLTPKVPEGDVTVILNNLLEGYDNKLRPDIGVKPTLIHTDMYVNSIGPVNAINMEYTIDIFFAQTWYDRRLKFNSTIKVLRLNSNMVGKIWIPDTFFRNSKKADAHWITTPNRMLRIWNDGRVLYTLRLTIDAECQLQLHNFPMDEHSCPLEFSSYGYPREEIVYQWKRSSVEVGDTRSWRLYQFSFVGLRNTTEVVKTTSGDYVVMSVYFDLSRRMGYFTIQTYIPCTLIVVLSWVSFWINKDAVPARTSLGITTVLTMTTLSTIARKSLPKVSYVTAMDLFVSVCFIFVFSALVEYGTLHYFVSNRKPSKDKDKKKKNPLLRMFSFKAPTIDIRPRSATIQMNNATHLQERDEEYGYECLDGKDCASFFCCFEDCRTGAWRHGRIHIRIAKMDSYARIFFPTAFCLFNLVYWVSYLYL
Sequence of Gamma-aminobutyric acid receptor subunit alpha-1/alpha-2/beta-2/gamma-2 (P47869 whole entry): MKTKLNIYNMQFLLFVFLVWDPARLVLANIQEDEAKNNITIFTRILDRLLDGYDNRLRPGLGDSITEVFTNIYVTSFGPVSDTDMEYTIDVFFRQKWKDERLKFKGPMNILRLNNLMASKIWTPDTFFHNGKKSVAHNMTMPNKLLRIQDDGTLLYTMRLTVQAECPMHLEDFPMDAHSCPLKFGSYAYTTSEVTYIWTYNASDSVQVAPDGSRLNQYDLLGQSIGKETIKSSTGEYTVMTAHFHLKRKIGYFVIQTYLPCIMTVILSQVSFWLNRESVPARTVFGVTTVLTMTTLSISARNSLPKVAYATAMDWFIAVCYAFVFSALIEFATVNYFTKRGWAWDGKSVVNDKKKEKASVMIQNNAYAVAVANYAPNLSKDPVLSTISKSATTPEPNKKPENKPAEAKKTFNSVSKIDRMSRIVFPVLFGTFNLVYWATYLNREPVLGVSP
Sequence of Beta-1 adrenergic receptor (P08588 whole entry): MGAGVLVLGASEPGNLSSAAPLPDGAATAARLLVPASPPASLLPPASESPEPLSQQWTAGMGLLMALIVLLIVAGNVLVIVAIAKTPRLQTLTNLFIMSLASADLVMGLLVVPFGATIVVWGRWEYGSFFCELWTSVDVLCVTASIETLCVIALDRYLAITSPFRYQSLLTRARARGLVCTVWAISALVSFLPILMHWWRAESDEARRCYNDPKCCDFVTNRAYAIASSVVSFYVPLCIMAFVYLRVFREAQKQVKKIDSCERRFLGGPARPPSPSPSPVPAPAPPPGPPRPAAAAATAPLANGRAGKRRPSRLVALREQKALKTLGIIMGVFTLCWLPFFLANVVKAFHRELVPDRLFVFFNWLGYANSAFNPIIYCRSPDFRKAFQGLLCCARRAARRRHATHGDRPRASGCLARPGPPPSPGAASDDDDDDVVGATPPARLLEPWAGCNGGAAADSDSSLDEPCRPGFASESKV
Sequence of Histamine H1 receptor (P35367 whole entry): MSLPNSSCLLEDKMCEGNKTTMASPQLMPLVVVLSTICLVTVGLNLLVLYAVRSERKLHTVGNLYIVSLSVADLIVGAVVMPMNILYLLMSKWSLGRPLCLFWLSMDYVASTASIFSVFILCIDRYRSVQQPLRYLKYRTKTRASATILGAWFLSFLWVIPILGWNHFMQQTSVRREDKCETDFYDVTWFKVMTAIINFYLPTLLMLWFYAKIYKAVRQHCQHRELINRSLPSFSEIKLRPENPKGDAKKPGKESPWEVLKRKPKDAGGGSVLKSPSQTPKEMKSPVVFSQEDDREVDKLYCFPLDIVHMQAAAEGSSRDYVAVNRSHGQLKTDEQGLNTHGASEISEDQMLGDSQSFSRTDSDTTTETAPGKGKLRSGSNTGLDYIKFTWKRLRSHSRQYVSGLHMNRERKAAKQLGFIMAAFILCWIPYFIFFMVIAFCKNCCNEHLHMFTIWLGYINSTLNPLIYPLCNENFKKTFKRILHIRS
Sequence of Neurotensin receptor type 1 (P30989 whole entry): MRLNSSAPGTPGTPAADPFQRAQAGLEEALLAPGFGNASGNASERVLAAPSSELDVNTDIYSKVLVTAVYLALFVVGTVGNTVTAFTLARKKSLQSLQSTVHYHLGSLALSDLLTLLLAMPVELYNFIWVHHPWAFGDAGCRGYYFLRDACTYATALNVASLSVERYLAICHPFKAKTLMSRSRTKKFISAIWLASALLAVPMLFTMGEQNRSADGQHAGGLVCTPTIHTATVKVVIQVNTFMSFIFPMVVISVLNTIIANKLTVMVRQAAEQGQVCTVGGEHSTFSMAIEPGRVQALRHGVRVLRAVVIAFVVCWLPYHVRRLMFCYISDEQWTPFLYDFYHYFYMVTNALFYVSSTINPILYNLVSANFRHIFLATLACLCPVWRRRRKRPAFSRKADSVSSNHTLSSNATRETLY
Sequence of Histamine H2 receptor (P25021 whole entry): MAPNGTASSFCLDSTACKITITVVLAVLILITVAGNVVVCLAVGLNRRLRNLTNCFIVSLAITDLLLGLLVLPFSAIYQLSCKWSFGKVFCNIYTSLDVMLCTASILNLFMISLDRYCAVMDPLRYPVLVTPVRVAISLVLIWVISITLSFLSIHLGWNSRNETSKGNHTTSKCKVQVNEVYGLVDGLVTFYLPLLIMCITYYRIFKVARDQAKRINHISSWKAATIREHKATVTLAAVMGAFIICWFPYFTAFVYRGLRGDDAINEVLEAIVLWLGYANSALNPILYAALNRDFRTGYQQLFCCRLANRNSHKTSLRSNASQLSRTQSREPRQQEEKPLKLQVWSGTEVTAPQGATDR
Sequence of 5-hydroxytryptamine receptor 7 (P34969 whole entry): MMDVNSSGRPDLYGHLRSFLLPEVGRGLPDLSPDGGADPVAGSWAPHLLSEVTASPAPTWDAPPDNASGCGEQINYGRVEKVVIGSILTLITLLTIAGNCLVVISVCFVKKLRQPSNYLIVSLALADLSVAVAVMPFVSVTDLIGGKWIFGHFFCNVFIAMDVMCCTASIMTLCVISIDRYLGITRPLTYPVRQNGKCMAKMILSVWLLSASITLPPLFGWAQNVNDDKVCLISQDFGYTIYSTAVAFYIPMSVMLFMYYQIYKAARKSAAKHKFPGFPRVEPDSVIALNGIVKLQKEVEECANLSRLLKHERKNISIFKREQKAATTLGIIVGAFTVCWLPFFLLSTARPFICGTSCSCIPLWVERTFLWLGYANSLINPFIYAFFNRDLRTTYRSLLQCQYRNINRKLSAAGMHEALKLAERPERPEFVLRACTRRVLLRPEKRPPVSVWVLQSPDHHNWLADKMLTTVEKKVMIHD
Sequence of 5-hydroxytryptamine receptor 6 (P50406 whole entry): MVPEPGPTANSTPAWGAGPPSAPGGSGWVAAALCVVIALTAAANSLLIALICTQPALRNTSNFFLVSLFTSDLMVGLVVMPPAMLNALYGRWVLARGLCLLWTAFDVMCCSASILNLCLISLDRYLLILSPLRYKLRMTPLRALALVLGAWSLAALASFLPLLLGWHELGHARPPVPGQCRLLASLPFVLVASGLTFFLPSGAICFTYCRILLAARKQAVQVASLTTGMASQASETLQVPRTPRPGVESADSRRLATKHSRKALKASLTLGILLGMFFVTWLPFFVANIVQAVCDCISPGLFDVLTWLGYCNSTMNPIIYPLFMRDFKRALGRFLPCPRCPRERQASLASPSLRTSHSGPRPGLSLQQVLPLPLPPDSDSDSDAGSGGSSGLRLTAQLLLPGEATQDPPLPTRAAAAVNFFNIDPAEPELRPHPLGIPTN

As for `CCCCC(C)(O)C/C=C/[C@H]1[C@H](O)CC(=O)[C@@H]1CCCCCCC(=O)OC` (stereo partly specified) [MISOPROSTOL], the AC50 in assay [1] and in assay [2] was > 30 µM throughout.

Turning to `NC(CO)C(=O)NNCc1ccc(O)c(O)c1O` (stereo unspecified) [BENSERAZIDE], the AC50 (in general, the concentration at which the activity in the assay is half-maximal) in assay [3] was > 30 µM; in [4] it was > 30 µM; in [2] it was > 30 µM; in [5] it was > 10 µM; in assay [6], > 30 µM; in assay [7] it was > 10 µM.

`COc1ccc(C(=O)N2CCN(c3ccc4c(c3)CCC(=O)N4)CC2)cc1OC` [VESNARINONE]: the AC50 in assay [1] and in assay [2] was > 30 µM each time.

With `C#C[C@]1(O)CC[C@H]2[C@@H]3CCC4=CCCC[C@@H]4[C@H]3CC[C@@]21C` [LYNESTRENOL], the AC50 in assay [8] is > 30 µM.

Take `COc1c(C)c2c(c(O)c1C/C=C(\C)CCC(=O)OCCN1CCOCC1)C(=O)OC2` [MYCOPHENOLATE MOFETIL]: the AC50 in [8] is > 30 µM.

Consider `O=C1CN=C(c2ccccc2)c2cc(Cl)ccc2N1CC(F)(F)F` [HALAZEPAM], for which the AC50 in [1], in assay [2] and in assay [9] was > 30 µM each time.

On to `C=C1CC[C@@]2(O)[C@H]3Cc4ccc(O)c5c4[C@@]2(CCN3CC2CC2)[C@H]1O5`, for which the AC50 in assay [1] and in assay [2] was > 30 µM in each case.

For `Nc1ncnc2c1ncn2[C@@H]1O[C@H](COP(=O)(O)O)[C@@H](O)[C@H]1O` [ADENOSINE PHOSPHATE], the half-maximal activity concentration (AC50) in assay [1] and in assay [2] was > 30 µM in each case.

For `O=C(O)Cc1cn(-c2ccccc2)nc1-c1ccc(Cl)cc1` [LONAZOLAC], the AC50 in [8] was > 30 µM.

In the case of `C1=Cc2cccc(OCC3CNCCO3)c2C1` (stereo unspecified) [INDELOXAZINE], in [8], the AC50 was > 30 µM.

On to `Cc1c(Cl)cccc1Nc1ccccc1C(=O)O` [TOLFENAMIC ACID], for which the AC50 in [8] was > 30 µM.

Consider `CC/C=C\C/C=C\C/C=C\CCCCCCCC(=O)O` [LINOLENIC ACID], for which the half-maximal activity concentration (AC50) in [1] and in assay [2] was > 30 µM in each case.

For `CCC(C(=O)O)c1ccc(CC(C)C)cc1` (stereo unspecified) [BUTIBUFEN], the AC50 in [8] was > 30 µM.

On to `Cc1ccc(-c2nc3ccc(C)cn3c2CC(=O)N(C)C)cc1` [ZOLPIDEM], for which the AC50 in assay [3] is > 30 µM; in [4] it was > 30 µM; in [10], > 10 µM; in [11] it was > 10 µM; in assay [5] it was > 10 µM; in assay [12] it was > 10 µM. The AC50 in assay [13] is > 10 µM; in [6], > 30 µM; in [7], > 10 µM.

Take `CCCCCCC(C)(C)c1cc(O)c2c(c1)OC(C)(C)C1CCC(=O)CC21` (stereo unspecified) [NABILONE]: the AC50 in assay [1], in assay [2] and in [9] was > 30 µM in each case.

Regarding `C[C@]12CCC(=O)C=C1CC[C@@H]1[C@@H]2CC[C@@]2(C)[C@H]1CC[C@]2(C)O` [METHYLTESTOSTERONE], the AC50 in [8] is > 30 µM.

For the compound `C[C@H]1C[C@@H]2[C@H]([C@@H](O)C[C@@]3(C)[C@H]2CC[C@]3(O)C(=O)COC(=O)CCC(=O)O)[C@@]2(C)C=CC(=O)C=C12` [METHYLPREDNISOLONE HEMISUCCINATE], the AC50 in assay [1], in assay [2] and in assay [9] was > 30 µM in each case.
